Assay results taken from ChEMBL document CHEMBL4622912, “Isolation and biological activity of agrostophillinol from kaffir lime (Citrus hystrix) leaves” (Bioorg Med Chem Lett, 2020).
Converted amounts (≈) assume the structure as drawn. One block for each compound: values may come before it. The source made the active and inactive calls. No cut-off for these calls is given here.

Assays:
K562 = assay: Antiproliferative activity against human K562 cells assessed as reduction in cell viability incubated for 2 days by MTT assay; assay type: functional, cell-based; settings: K562, 48 h
[1] = Antioxidant activity assessed as trolox equivalent antioxidant capacity; assay type: functional
[2] = Antioxidant activity assessed as ferric reducing ability; assay type: functional
HL-60 = assay: Antiproliferative activity against human HL60 cells incubated for 2 days by MTT assay; assay type: functional, cell-based; settings: HL-60, 48 h
RAW264.7 [3] = assay: Antiinflammatory activity against mouse RAW264.7 cells assessed as reduction in TNFalpha level; assay type: functional, cell-based
RAW264.7 [4] = assay: Antiinflammatory activity against mouse RAW264.7 cells assessed as reduction in IL6 level; assay type: functional, cell-based
[5] = Cytotoxicity against mouse RAW264.7 cells assessed as reduction in cell viability incubated for 2 days by MTT assay; assay type: cell-based
PBMC = assay: Cytotoxicity against human PBMC assessed as reduction in cell viability incubated for 2 days by MTT assay; assay type: cell-based; settings: 48 h
[6] = Antioxidant activity assessed as DPPH radical scavenging activity; assay type: functional; settings: dose or concentration not given here
RAW264.7 [7] = assay: Antiinflammatory activity against mouse RAW264.7 cells assessed as reduction in IL6 level at 2.7 ug/ml; assay type: functional, cell-based
[8] = Cytotoxicity against mouse RAW264.7 cells assessed as cell viability at 2.7 ug/ml incubated for 2 days by MTT assay relative to control; assay type: cell-based; settings: read-out: Activity
EOL1 = assay: Antiproliferative activity against human EOL1 cells incubated for 2 days by MTT assay; assay type: functional, cell-based; settings: EOL1, 48 h
KG-1a = assay: Antiproliferative activity against human KG1a cells assessed as reduction in cell viability incubated for 2 days by MTT assay; assay type: functional, cell-based; settings: 48 h
RAW264.7 [9] = assay: Antiinflammatory activity against mouse RAW264.7 cells assessed as reduction in TNFalpha level at 2.7 ug/ml; assay type: functional, cell-based

Structure (SMILES): O=C1O[C@H]([C@@H](O)CO)C(O)=C1O
Activity [1]: 1.7 µM
Activity [2]: 23.7 µM

Structure (SMILES): C/C(=C\CO)CCC[C@H](C)CCC[C@H](C)CCCC(C)C [TRANS-PHYTOL]
IC50 (K562): 45.8 µg/mL (≈ 154 µM)

Structure (SMILES): C[C@@H]1C[C@H]2[C@@H]3CCC4=CC(=O)C=C[C@]4(C)[C@@]3(F)[C@@H](O)C[C@]2(C)[C@@]1(O)C(=O)CO
inhibition (RAW264.7 [3]): Dose-dependent effect
inhibition (RAW264.7 [4]): Dose-dependent effect

Structure (SMILES): C=C(CC[C@@H](C)[C@H]1CC[C@@]2(C)[C@@H]3CC[C@H]4C(C)(C)[C@@H](O)CC[C@]4(C)C3=CC[C@]12C)C(C)C
Activity [1]: 0.1 µM
IC50 (HL-60): 53.4 µg/mL (≈ 121 µM)
IC20 at 48 h [5]: 2.7 µg/mL (≈ 6.13 µM)
IC50 (PBMC): > 100 µg/mL
IC50 (K562): > 100 µg/mL
inhibition [6]: 8.6%
inhibition (RAW264.7 [7]): Active
viability at 48 h, 2.7 ug/ml [8]: 80%
IC50 (EOL1): 36.3 µg/mL (≈ 82.4 µM)
Activity [2]: 0.2 µM
IC50 (KG-1a): > 100 µg/mL
inhibition (RAW264.7 [9]): Active

Other lines, results leading:

IC50 (K562): 82.8 µg/mL (≈ 194 µM)
Structure (SMILES): C=C(C)[C@@H]1CC[C@]2(C)CC[C@]3(C)[C@H](CC[C@@H]4[C@@]5(C)CC[C@H](O)C(C)(C)[C@@H]5CC[C@]43C)[C@@H]12 [LUPEOL]

IC50 (HL-60): 0.008 µg/mL (≈ 0.0097 µM)
Structure (SMILES): CC[C@]1(O)C[C@H]2CN(CCc3c([nH]c4ccccc34)[C@@](C(=O)OC)(c3cc4c(cc3OC)N(C=O)[C@H]3[C@@](O)(C(=O)OC)[C@H](OC(C)=O)[C@]5(CC)C=CCN6CC[C@]43[C@@H]65)C2)C1 [VINCRISTINE]
